The text below walks through data of patent US9708270B2, “Substituted spiropiperidinyl compounds useful as GPR120 agonists” (Merck Sharp & Dohme Corp., priority 2012, dated 2017).

Structures are written as SMILES.

For the first experiment, the target named is T1, human GPR120 (Homo sapiens (Human), UniProt Q5NUL3). Kind of experiment: FLIPR assay: intracellular calcium in CHO cells expressing human GPR120. In kind it is cell-based. The following applies: FLIPR calcium assay, CHO cells expressing human GPR120, agonist action. As for the experimental part: All compounds were tested under the FLIPR assay unless otherwise indicated.
T1 sequence (Q5NUL3 whole entry, the tested form may be a part): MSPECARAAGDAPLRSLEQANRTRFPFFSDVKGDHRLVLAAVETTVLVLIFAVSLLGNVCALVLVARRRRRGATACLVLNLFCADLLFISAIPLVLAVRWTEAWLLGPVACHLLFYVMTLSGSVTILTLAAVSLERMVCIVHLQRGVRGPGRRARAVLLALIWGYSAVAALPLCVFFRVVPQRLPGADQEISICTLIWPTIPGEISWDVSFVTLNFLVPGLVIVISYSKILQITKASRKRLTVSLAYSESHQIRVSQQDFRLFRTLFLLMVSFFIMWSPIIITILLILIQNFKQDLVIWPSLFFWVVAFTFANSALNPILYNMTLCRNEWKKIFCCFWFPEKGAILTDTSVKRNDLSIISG
Primers were synthesized in the domains on the opposite sides of the base sequences of the ORFs of the known GPCR and GPR120 in GenBank Accession NOs. […] The base sequences of the primers used are described below. The restriction enzymes, BamHI and EcoRI, recognition sites were introduced for subcloning, respectively.
As samples for PCR, human small intestine Marathon-ready cDNA (CLONTECH, current corporate name: TaKaRa) and cDMA obtained by reverse transcription of mouse BAT-derived RNA were used for human and mouse GPR120 receptor genes, respectively.
Using KOD Plus (TOYOBO) for PCR, 30 cycles of 94° C. for 2 minutes, 94° C. for 15 seconds, 55° C. for 30 seconds and 68° C. for 1 minute were carried out to effect reaction, followed by addition of 0.5 units of ExTaq (TaKaRa) and incubation at 72° C. for 10 minutes to carry out A-addition reaction to terminals. For mouse PCR, 35 cycles were carried out on the condition of a final DMSO concentration of 2%.
Cloning of amplified PCR products was carried out using pCR2.1-TOPO TA cloning kit (Invitrogen). For verification of base sequences, electrophoresis was carried out using BigDye Terminator Cycle Sequencing Ready Reaction Kit Ver.
The GPR120 receptor genes cloned into pCR2.1-TOPO vectors, into which the restriction enzymes, BamHI and EcoRI, recognition sites were introduced, were excised from the vectors by the enzymes and subcloned into the BamHI and EcoRI recognition sites of eukaryotic expression vector EF1/V5-His B (Invitrogen).
Test 2: Production of Expression Cells
Using Lipofectamine 2000 (Invitrogen), cDNA of GPR120 receptor was transfected into CHO/NFAT-BLA cells, and drug-resistant cells were isolated to obtain GPR120 stable expression strains. The GPR120-expressed CHO cells were cultured in DMEM/F12 medium containing 10% fetal bovine serum, 100 units/ml penicillin, 0.1 mg/ml streptomycin sulfate, 250 μg/ml Zeocin, 500 μg/mL Geneticin and 15 mM HEPES.
Test 3: Measurement of Intracellular Calcium Concentration
To the cells was added the test compound diluted with HBSS solution containing 20 mM HEPES and 2.5 mM probenecid. Variations in the intracellular calcium concentration were measured by Fluorescence Imaging Plate Reader (FLIPR; Molecular Devices) to examine the agonist action, and EC50 values were calculated. […]
(In general: Calcium assays in cells follow changes in intracellular calcium, usually with a dye or a luminescent sensor.)
As for `Cc1cc(N2CCC3(CCC(CC(=O)O)CC3)CC2)cc(C(F)(F)F)c1` [Example 34], the EC50 (as a rule, the midpoint of the concentration-response curve) came to 671 nM.

With `N#Cc1ccc(OC(F)(F)F)cc1N1CCC2(CCC(CC(=O)O)CC2)CC1` [Example 35], the EC50 came to 431 nM. As to `O=C(O)CC1CCC2(CC1)CCN(c1cc(Cl)cc(C(F)(F)F)c1)CC2` [Example 36], the 50% effective concentration (EC50) was determined as 832 nM.

On to `Cc1cc(F)c(Cl)c(N2CCC3(CCC(CC(=O)O)CC3)CC2)c1` [Example 37], for which the EC50 is 2170 nM. On the same count and under the same terms, then `O=C(O)CC1CCC2(CC1)CCN(c1cc(F)cc(Cl)c1F)CC2` [Example 38], with 2150 nM. Turning to `O=C(O)CC1CCC2(CC1)CCN(c1cc(Cl)cc(F)c1F)CC2` [Example 39], the EC50 turned out to be 1800 nM. On the same count and under the same terms, then `Cc1cc(Cl)cc(N2CCC3(CCC(CC(=O)O)CC3)CC2)c1C#N` [Example 40], with 2540 nM; and `CSc1ccc(OC(F)(F)F)cc1N1CCC2(CCC(CC(=O)O)CC2)CC1` [Example 41], with 1690 nM.

As for `Cc1ccc(C(F)(F)F)cc1N1CCC2(CCC(CC(=O)O)CC2)CC1` [Example 42], the concentration giving a half-maximal response (EC50) amounted to 749 nM. As to `Cc1cc(C)c(Cl)c(N2CCC3(CCC(CC(=O)O)CC3)CC2)c1` [Example 43], the concentration for a half-maximal effect (EC50) is 2520 nM. `CCc1cc(CC)cc(N2CCC3(CCC(CC(=O)O)CC3)CC2)c1` [Example 44]: the EC50 is 2580 nM. The same measure, in the same setting: as for `Cc1cc(Cl)cc(N2CCC3(CCC(CC(=O)O)CC3)CC2)c1` [Example 45], the figure is 1170 nM; as for `CCc1cc(C)cc(N2CCC3(CCC(CC(=O)O)CC3)CC2)c1` [Example 46], 1290 nM. Still for that read-out and setting: then `O=C(O)CC1CCC2(CC1)CCN(c1cc(OC3CCC3)ccc1Cl)CC2` [Example 47], with 330 nM.

As to `Cc1cc(OC(F)(F)F)cc(N2CCC3(CCC(CC(=O)O)CC3)CC2)c1` [Example 48], the EC50 is 377 nM. As to `COc1cc(OC(F)(F)F)cc(N2CCC3(CCC(CC(=O)O)CC3)CC2)c1` [Example 49], the EC50 was 449 nM.

Regarding `N#Cc1cc(OC(F)(F)F)cc(N2CCC3(CCC(CC(=O)O)CC3)CC2)c1` [Example 51], the EC50 came to 617 nM. Same read-out and setting: as for `CC(C)Oc1cc(Cl)cc(N2CCC3(CCC(CC(=O)O)CC3)CC2)c1` [Example 52], the figure is 641 nM; as for `CSc1cc(N2CCC3(CCC(CC(=O)O)CC3)CC2)cc(C(F)(F)F)c1` [Example 53], 667 nM.

In the case of `O=C(O)CC1CCC2(CC1)CCN(c1cc(OC(F)(F)F)ccc1O)CC2` [Example 54], the EC50 came out at 681 nM.

As for `O=C(O)CC1CCC2(CC1)CCN(c1cc(OC3CC3)ccc1Cl)CC2` [Example 55], the EC50 came to 869 nM.

`CC(C)Oc1cc(OC(F)(F)F)cc(N2CCC3(CCC(CC(=O)O)CC3)CC2)c1` [Example 56]: the EC50 stood at 1220 nM. Same read-out and setting: as for `N#Cc1ccc(OC2CCC2)cc1N1CCC2(CCC(CC(=O)O)CC2)CC1` [Example 57], the figure is 1330 nM; as for `Cc1ccc(C)c(N2CCC3(CCC(CC(=O)O)CC3)CC2)c1` [Example 58], 1440 nM. The same measure, in the same setting: then `O=C(O)CC1CCC2(CC1)CCN(c1cc(OC(F)(F)F)cc(C(F)(F)F)c1)CC2` [Example 59], with 1490 nM; and `CC(C)Oc1cc(F)cc(N2CCC3(CCC(CC(=O)O)CC3)CC2)c1` [Example 60], with 1550 nM. Turning to `O=C(O)CC1CCC2(CC1)CCN(c1cc(OC(F)F)ccc1Cl)CC2` [Example 61], the EC50 came out at 1960 nM. The same measure, in the same setting: then `O=C(O)CC1CCC2(CC1)CCN(c1cc(OC3CC3)ccc1F)CC2` [Example 62], with 2150 nM; and `Cc1ccc(F)c(N2CCC3(CCC(CC(=O)O)CC3)CC2)c1` [Example 63], with 2320 nM. As for `COc1cccc(N2CCC3(CCC(CC(=O)O)CC3)CC2)c1` [Example 64], the EC50 turned out to be 2400 nM.

As for `Cc1ccc(C#N)cc1N1CCC2(CCC(CC(=O)O)CC2)CC1` [Example 65], the EC50 was 2500 nM. For the compound `Cc1cc(F)cc(N2CCC3(CCC(CC(=O)O)CC3)CC2)c1Cl` [Example 68], the EC50 was determined as 2860 nM. Still for that read-out and setting: then `CN(C)c1cccc(N2CCC3(CCC(CC(=O)O)CC3)CC2)c1` [Example 69], with 2940 nM.

For `Cc1cccc(N2CCC3(CCC(CC(=O)O)CC3)CC2)c1` [Example 70], the EC50 was 2950 nM. With `Cc1cc(C#N)cc(N2CCC3(CCC(CC(=O)O)CC3)CC2)c1` [Example 71], the EC50 is 2960 nM. Same read-out and setting: as for `COc1cc(C)cc(N2CCC3(CCC(CC(=O)O)CC3)CC2)c1` [Example 72], the figure is 3060 nM; as for `O=C(O)CC1CCC2(CC1)CCN(c1cc(C(F)(F)F)ccc1CO)CC2` [Example 73], 3170 nM; as for `COc1cc(N2CCC3(CCC(CC(=O)O)CC3)CC2)c(F)cn1` [Example 74], 3420 nM.

Consider `COCCOc1cc(Cl)cc(N2CCC3(CCC(CC(=O)O)CC3)CC2)c1` [Example 75], for which the EC50 is 3630 nM. With `O=C(O)CC1CCC2(CC1)CCN(c1ccc(-c3ccccc3)cc1)CC2` [Example 77], the EC50 was 4940 nM. Turning to `Cc1cccnc1Oc1ccc(C#N)c(N2CCC3(CCC(CC(=O)O)CC3)CC2)c1` [Example 79], the EC50 came to 6570 nM.

In the case of `COCCOc1ccc(Cl)c(N2CCC3(CCC(CC(=O)O)CC3)CC2)c1` [Example 80], the EC50 is 6970 nM. Same read-out and setting: as for `O=C(O)CCC1CCC2(CC1)CCN(c1cc(OC3CCC3)ccc1F)CC2` [Example 82, 3-(3-(5-Cyclobutoxy-2-fluorophenyl)-3-azaspiro[5.5]undecan-9-yl)propanoic acid], the figure is 1260 nM; as for `O=C(O)CCCC1CCC2(CC1)CCN(c1cc(OC3CCC3)ccc1F)CC2` [Example 83, 4-(3-(5-Cyclobutoxy-2-fluorophenyl)-3-azaspiro[5.5]undecan-9-yl)butanoic acid], 791 nM; as for `O=C(O)CCC1CCC2(CC1)CCN(c1cc(OC3CCC3)ccc1Cl)CC2` [Example 84], 1350 nM.

In the case of `O=C(O)CCC1CCC2(CC1)CCN(c1cc(OC(F)(F)F)ccc1Cl)CC2` [Example 85], the EC50 was 1790 nM.

`O=C(O)CCCC1CCC2(CC1)CCN(c1cc(OC(F)(F)F)ccc1Cl)CC2` [Example 86]: the EC50 turned out to be 2020 nM. On the same count and under the same terms, then `O=C(O)CCCC1CCC2(CC1)CCN(c1cc(OC3CCC3)ccc1Cl)CC2` [Example 87], with 2260 nM; and `CC1CC(CC(=O)O)CCC12CCN(c1cc(OC(F)(F)F)ccc1Cl)CC2` (stereo not shown) [Example 89, 2-(3-(2-Chloro-5-(trifluoromethoxy)phenyl)-7-methyl-3-azaspiro[5.5]undecan-9-yl)acetic acid], with 2490 nM; and `NCCC1CCC2(CC1)CCN(c1cc(OC(F)(F)F)ccc1Cl)CC2` [Example 90, 2-(3-(2-chloro-5-(trifluoromethoxy)phenyl)-3-azaspiro[5.5]undecan-9-yl)ethanamine], with 5610 nM. For `O=C(O)CC1CCC2(CCN(c3cccc(OC(F)(F)F)c3)CC2)OC1` (stereo not shown) [Example 95], the EC50 is 1900 nM. Turning to `O=C(O)CC1CCC2(CCN(c3cc(OC(F)(F)F)ccc3Cl)CC2)OC1` (stereo not shown) [Example 97], the EC50 is 1290 nM. Regarding `O=C(O)C[C@@H]1CCC2(CCN(c3cc(OC4CCC4)ccc3Cl)CC2)OC1` [Example 98], the EC50 stood at 1530 nM. Same read-out and setting: then `O=C(O)C[C@@H]1CCC2(CCN(c3cc(OC4CCC4)ccc3F)CC2)OC1` [Example 100], with 4280 nM. Still for that read-out and setting: as for `COc1cc(Cl)cc(N2CCC3(CC2)CC(CC(=O)O)CO3)c1` (stereo not shown) [Example 102], the figure is 8100 nM.

The target of a further experiment is T1, human GPR120. In words: IP1 assay (GPR120 assay adapted from Bergsdorf et al.).
Conditions: not given
Format: cell-based. The source says: The EC50 values for the exemplified compounds are provided in the following examples and in the following tables. • IP1 Assay • IP1 assay results were obtained adapting the GPR120 assay described in C. Bergsdorf, et al., Assay Drug Dev. Technol., 2008, 6(1), 39-53. General Schemes
Compound `O=C(O)CCC1CCC2(CCN(c3cc(OC4CCC4)ccc3Cl)CC2)C1` (stereo not shown) [Example 105, 3-(8-(2-chloro-5-cyclobutoxyphenyl)-8-azaspiro[4.5]decan-2-yl)propanoic acid] showed an EC50 of 44.8 nM. On the same count and under the same terms, as for `N#Cc1ccc(OC(F)(F)F)cc1N1CCC2(CCC(CCC(=O)O)C2)CC1` (stereo not shown) [Example 106], the figure is 220 nM; as for `COc1cc(F)c(N2CCC3(CCC(CCC(=O)O)C3)CC2)cc1OC1CCC1` (stereo not shown) [Example 107], 202 nM.
